{
  "source": "paper PMC6934184",
  "about": "“Selective DNA-PKcs inhibition extends the therapeutic index of localized radiotherapy and chemotherapy” (The Journal of Clinical Investigation, 2019)",
  "biological_target": "T1, PLK4 (Homo sapiens, UniProt O00444)",
  "T1 construct": "purchased Thermo Fisher Scientific (Life Technologies) SelectScreen",
  "T1 sequence (O00444 whole entry)": "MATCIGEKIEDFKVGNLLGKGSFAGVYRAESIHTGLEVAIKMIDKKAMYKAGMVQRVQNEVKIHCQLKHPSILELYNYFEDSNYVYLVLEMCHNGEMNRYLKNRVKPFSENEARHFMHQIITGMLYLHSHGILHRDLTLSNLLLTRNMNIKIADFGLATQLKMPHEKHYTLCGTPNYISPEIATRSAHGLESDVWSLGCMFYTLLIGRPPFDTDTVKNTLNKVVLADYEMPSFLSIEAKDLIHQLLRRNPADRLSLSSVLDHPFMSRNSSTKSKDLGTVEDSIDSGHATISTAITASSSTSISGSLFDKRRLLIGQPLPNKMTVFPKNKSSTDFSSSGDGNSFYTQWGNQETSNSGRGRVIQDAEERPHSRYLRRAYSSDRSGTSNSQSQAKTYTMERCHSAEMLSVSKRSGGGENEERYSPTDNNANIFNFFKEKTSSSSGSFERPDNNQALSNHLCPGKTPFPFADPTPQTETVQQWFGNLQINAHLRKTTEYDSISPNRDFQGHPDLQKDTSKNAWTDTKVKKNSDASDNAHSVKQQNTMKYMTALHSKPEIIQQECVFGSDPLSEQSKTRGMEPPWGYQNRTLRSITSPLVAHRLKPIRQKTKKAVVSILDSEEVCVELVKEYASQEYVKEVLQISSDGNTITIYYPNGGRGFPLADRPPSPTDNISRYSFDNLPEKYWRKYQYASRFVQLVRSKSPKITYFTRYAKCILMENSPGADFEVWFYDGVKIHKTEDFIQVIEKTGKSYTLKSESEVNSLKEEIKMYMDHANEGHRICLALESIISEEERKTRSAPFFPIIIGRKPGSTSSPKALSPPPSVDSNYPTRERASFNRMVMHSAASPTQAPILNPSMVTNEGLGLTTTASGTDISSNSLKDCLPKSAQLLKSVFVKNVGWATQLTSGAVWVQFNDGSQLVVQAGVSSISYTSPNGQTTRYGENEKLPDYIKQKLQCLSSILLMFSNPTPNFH",
  "experiment": "SelectScreen LanthaScreen",
  "type": "binding",
  "conditions": "read-out: % displacement",
  "in_short": "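SelectScreen broad panel; activity (Z'LYTE, Adapta) plus binding formats. ATP: Km app for CSF1R Z'LYTE; 10 for CAMK1 Adapta. Readout = % per kinase.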",
  "data": [
    {"molecule": "CN(C(=O)CN1CCOCC1)c1ccc2sc3c(-c4cccc5c(=O)cc(N6CC7CCC(C6)O7)oc45)cccc3c2c1", "note": "[NU5455]", "values": [
      {"measurement": "inhibition at 1 µM", "result": -2.8, "unit": "%"}
    ]}
  ]
}
